Values after ≈ are worked out from the molar mass of the structure shown. *1 amine or outer side, *2 acyl side, *3 side chain or, on linkers, in order; H or OH if unused. Where a SMILES comes first, the peptide text is derived from it. Bridges are numbered along the chain shown (N, C = ends). [ ]: non-standard residue; d: D form. The star is where a group is joined. hTyr(3S-OH,4S-OH,3'-OSO3H) = N[C@H](C(=O)O)[C@H](O)[C@@H](O)c1ccc(O)c(OS(=O)(=O)O)c1; Orn(4R-OH,5R-OH) = O=C([C@H](C[C@@H](O)[C@@H](O)N[*:3])N[*:1])[*:2]; Pro(3S-OH,4S-Me) = C[C@H]1CN[C@H](C(=O)O)[C@H]1O; X1 = CCCCCOc1ccc(-c2cc(-c3ccc(C(=O)*)cc3)no2)cc1; Gln(3R-OH) = NC(=O)C[C@@H](O)[C@H](N)C(=O)O; Hyp = O=C(O)[C@@H]1C[C@@H](O)CN1
Columns and labels:
Candida tropicalis = experiment: Inhibition of Candida tropicalis ATCC 750 chitin synthase using UDP-GlcNAc as substrate at 300 ug/ml incubated for 1 hrs by absorbance based assay relative to control; conditions: dose 300.0 µg/ml
[1] = Inhibition of Candida tropicalis ATCC 750 chitin synthase using UDP-GlcNAc as substrate incubated for 1 hrs by absorbance based assay
Candida albicans [2] = experiment: Antifungal activity against Candida albicans ATCC 76615 assessed as fungal growth inhibition incubated for 24 hrs by CLSI protocol based broth microdilution method; format: functional
Aspergillus flavus [3] = experiment: Antifungal activity against Aspergillus flavus ATCC 16870 assessed as fungal growth inhibition incubated for 24 hrs by CLSI protocol based broth microdilution method; format: functional
Aspergillus fumigatus [4] = experiment: Antifungal activity against Aspergillus fumigatus GIMCC 3.19 assessed as fungal growth inhibition incubated for 24 hrs by CLSI protocol based broth microdilution method; format: functional
Cryptococcus neoformans [5] = experiment: Antifungal activity against Cryptococcus neoformans ATCC 208821 assessed as fungal growth inhibition incubated for 24 hrs by CLSI protocol based broth microdilution method; format: functional
Candida albicans [6] = experiment: Antifungal activity against fluconazole-resistant Candida albicans ATCC 76615R assessed as fungal growth inhibition; format: functional
Cryptococcus neoformans [7] = experiment: Antifungal activity against fluconazole-resistant Cryptococcus neoformans ATCC 208821R assessed as fungal growth inhibition; format: functional
Candida albicans [8] = experiment: Antifungal activity against micafungin-resistant Candida albicans ATCC 76615R assessed as fungal growth inhibition; format: functional
Candida albicans [9] = experiment: Antifungal activity against Candida albicans ATCC 76615 assessed as disruption of fungal wall by measuring fungal growth incubated for 24 hrs in the presence of sorbitol; format: functional
Cryptococcus neoformans [10] = experiment: Antifungal activity against Cryptococcus neoformans ATCC 208821 assessed as disruption of fungal wall by measuring fungal growth incubated for 24 hrs in the presence of sorbitol; format: functional
[11] = Selectivity ratio of MIC for antifungal activity against Candida albicans ATCC 76615 assessed as disruption of fungal wall by measuring fungal growth incubated for 24 hrs in the presence of sorbitol to MIC for antifungal activity against Candida albicans ATCC 76615 assessed as fungal growth inhibition; format: functional
Aspergillus flavus [12] = experiment: Antifungal activity against Aspergillus flavus ATCC 16870 assessed as disruption of fungal wall by measuring fungal growth incubated for 24 hrs in the presence of sorbitol; format: functional
Aspergillus fumigatus [13] = experiment: Antifungal activity against Aspergillus fumigatus GIMCC 3.19 assessed as disruption of fungal wall by measuring fungal growth incubated for 24 hrs in the presence of sorbitol; format: functional
Candida albicans [14] = experiment: Synergistic antifungal activity against Candida albicans ATCC 76615 assessed as fungal growth inhibition incubated for 24 hrs in the presence of fluconazole by broth dilution based checkerboard method; format: functional
Aspergillus fumigatus [15] = experiment: Synergistic antifungal activity against Aspergillus fumigatus GIMCC 3.19 assessed as fungal growth inhibition incubated for 24 hrs in the presence of fluconazole by broth dilution based checkerboard method; format: functional
Cryptococcus neoformans [16] = experiment: Synergistic antifungal activity against Cryptococcus neoformans ATCC 208821 assessed as fungal growth inhibition incubated for 24 hrs in the presence of fluconazole by broth dilution based checkerboard method; format: functional
Aspergillus flavus [17] = experiment: Synergistic antifungal activity against Aspergillus flavus ATCC 16870 assessed as fungal growth inhibition incubated for 24 hrs in the presence of fluconazole by broth dilution based checkerboard method; format: functional
Candida albicans [18] = experiment: Synergistic antifungal activity against Candida albicans ATCC 76615 assessed as fractional inhibitory concentration index incubated for 24 hrs in the presence of fluconazole by broth dilution based checkerboard method; format: functional
Aspergillus fumigatus [19] = experiment: Synergistic antifungal activity against Aspergillus fumigatus GIMCC 3.19 assessed as fractional inhibitory concentration index incubated for 24 hrs in the presence of fluconazole by broth dilution based checkerboard method; format: functional
Cryptococcus neoformans [20] = experiment: Synergistic antifungal activity against Cryptococcus neoformans ATCC 208821 assessed as fractional inhibitory concentration index incubated for 24 hrs in the presence of fluconazole by broth dilution based checkerboard method; format: functional
Aspergillus flavus [21] = experiment: Synergistic antifungal activity against Aspergillus flavus ATCC 16870 assessed as fractional inhibitory concentration index incubated for 24 hrs in the presence of fluconazole by broth dilution based checkerboard method; format: functional
[22] = Inhibition of chitin synthase (unknown origin); design: species or system Fungi

| Structure (SMILES) | inhibition (Candida tropicalis) | IC50 [1] | MIC (Candida albicans [2]) | MIC (Aspergillus flavus [3]) | MIC (Aspergillus fumigatus [4]) | MIC (Cryptococcus neoformans [5]) | MIC (Candida albicans [6]) | MIC (Cryptococcus neoformans [7]) | MIC (Candida albicans [8]) | MIC (Candida albicans [9]) | MIC (Cryptococcus neoformans [10]) | MIC (Aspergillus flavus [12]) | MIC (Candida albicans [14]) | MIC (Aspergillus fumigatus [15]) | MIC (Cryptococcus neoformans [16]) | MIC (Aspergillus flavus [17]) | fractional inhibitory concentration index (FICI) (Candida albicans [18]) | fractional inhibitory concentration index (FICI) (Aspergillus fumigatus [19]) | fractional inhibitory concentration index (FICI) (Cryptococcus neoformans [20]) | fractional inhibitory concentration index (FICI) (Aspergillus flavus [21]) | further results |
| --- | --- | --- | --- | --- | --- | --- | --- | --- | --- | --- | --- | --- | --- | --- | --- | --- | --- | --- | --- | --- | --- |
| COc1cc(Br)c(NC(=O)/C=C/C(=O)N2CCC3(CC2)OC(=O)Nc2ccc(OC)cc23)c(Br)c1 | 72% | 110 µM | 64 µg/mL (≈ 105 µM) | 256 µg/mL (≈ 420 µM) | 128 µg/mL (≈ 210 µM) | 64 µg/mL (≈ 105 µM) | 64 µg/mL (≈ 105 µM) | 64 µg/mL (≈ 105 µM) | 64 µg/mL (≈ 105 µM) | 512 µg/mL | 512 µg/mL |  |  |  |  |  |  |  |  |  | Ratio [11]: 8 |
| COc1ccc2c(c1)C1(CCN(C(=O)/C=C/C(=O)Nc3ccc([N+](=O)[O-])cc3OC)CC1)OC(=O)N2 | 86% | 100 µM | 128 µg/mL (≈ 258 µM) | 42.7 µg/mL (≈ 85.9 µM) | 64 µg/mL (≈ 129 µM) | 64 µg/mL (≈ 129 µM) |  |  |  |  | > 512 µg/mL | > 512 µg/mL | 16 µg/mL | 32 µg/mL | 32 µg/mL | 16 µg/mL | 1.13 | 1.5 | 1 | 1.37 | MIC (Aspergillus fumigatus [13]): 512 µg/mL |
| O=C(/C=C/C(=O)N1CCCC12Cc1ccccc1NC2=O)Nc1cccc([N+](=O)[O-])c1 (configuration not stated) |  |  |  |  |  |  |  |  |  |  |  |  |  |  |  |  |  |  |  |  | IC50 [22]: 100 µM |
| COc1ccc2c(c1)C1(CCN(C(=O)/C=C/C(=O)Nc3ccc(F)c(Cl)c3)CC1)OC(=O)N2 | 70% | 160 µM | 64 µg/mL (≈ 135 µM) | 16 µg/mL (≈ 33.8 µM) | 16 µg/mL (≈ 33.8 µM) | 64 µg/mL (≈ 135 µM) | 53.3 µg/mL (≈ 113 µM) | 64 µg/mL (≈ 135 µM) | 64 µg/mL (≈ 135 µM) |  |  |  | 64 µg/mL | 8 µg/mL | 32 µg/mL | 64 µg/mL | 2 | 0.75 | 0.625 | 1.125 |  |
| Cc1cccc(NC(=O)/C=C/C(=O)NC2Cc3ccccc3NC2=O)c1 (configuration not stated) |  |  |  |  |  |  |  |  |  |  |  |  |  |  |  |  |  |  |  |  | IC50 [22]: 90 µM |
| CCCCCOc1ccc(-c2cc(-c3ccc(C(=O)N[C@H]4C[C@@H](O)[C@@H](O)NC(=O)[C@@H]5[C@@H](O)[C@@H](C)CN5C(=O)[C@H]([C@H](O)CC(N)=O)NC(=O)[C@H]([C@H](O)[C@@H](O)c5ccc(O)c(OS(=O)(=O)O)c5)NC(=O)[C@@H]5C[C@@H](O)CN5C(=O)[C@H]([C@@H](C)O)NC4=O)cc3)no2)cc1 [MICAFUNGIN] (X1-[Orn(4R-OH,5R-OH)]T[Hyp][hTyr(3S-OH,4S-OH,3'-OSO3H)][Gln(3R-OH)][Pro(3S-OH,4S-Me)]; lactam 1-C) |  |  | 0.063 µg/mL (≈ 0.0496 µM) |  |  | > 512 µg/mL |  |  | 256 µg/mL (≈ 202 µM) |  |  |  |  |  |  |  |  |  |  |  |  |
| COc1ccc2c(c1)C1(CCN(C(=O)/C=C/C(=O)Nc3ccc(Br)cc3)CC1)OC(=O)N2 | 83% | 140 µM | 26.7 µg/mL (≈ 53.3 µM) | 32 µg/mL (≈ 64 µM) | 64 µg/mL (≈ 128 µM) | 64 µg/mL (≈ 128 µM) | 32 µg/mL (≈ 64 µM) | 53.3 µg/mL (≈ 107 µM) | 32 µg/mL (≈ 64 µM) | 256 µg/mL | 256 µg/mL | 256 µg/mL | 16 µg/mL | 32 µg/mL | 32 µg/mL | 53.3 µg/mL | 0.85 | 1.25 | 1 | 3.67 | MIC (Aspergillus fumigatus [13]): 512 µg/mL; Ratio [11]: 8 |
| NC(=O)OC[C@H](O)[C@@H](O)[C@H](N)C(=O)N[C@H](C(=O)O)[C@H]1O[C@@H](n2cc(CO)c(=O)[nH]c2=O)[C@H](O)[C@@H]1O [POLYOXIN B] | 85% | 80 µM | 64 µg/mL (≈ 126 µM) | 64 µg/mL (≈ 126 µM) | 32 µg/mL (≈ 63.1 µM) | 64 µg/mL (≈ 126 µM) |  |  |  | 512 µg/mL | > 512 µg/mL | > 512 µg/mL |  |  |  |  |  |  |  |  | MIC (Aspergillus fumigatus [13]): 512 µg/mL |
| COc1ccc2c(c1)C1(CCN(C(=O)/C=C/C(=O)Nc3ccccc3)CC1)OC(=O)N2 | 69% | 280 µM | 64 µg/mL (≈ 152 µM) | 53.3 µg/mL (≈ 127 µM) | 53.3 µg/mL (≈ 127 µM) | 64 µg/mL (≈ 152 µM) |  |  |  |  |  |  | 32 µg/mL | 26 µg/mL | 16 µg/mL | 64 µg/mL | 1 | 0.55 | 1.125 | 1.125 |  |

— ChEMBL document CHEMBL5331050, “Spiro[benzoxazine-piperidin]-one derivatives as chitin synthase inhibitors and antifungal agents: Design, synthesis and biological evaluation” (Eur J Med Chem, 2022)
